Assay results published in patent publication US9403874B2, “Peptides and use thereof” (IL YANG PHARM. CO.,LTD., priority 2012, dated 2016).

Legend:
[1] = system: collagen-induced arthritis mouse model; test: Collagen-induced arthritis mouse model; assay type: in vivo
Procedure: In order to investigate the therapeutic effect of the peptide SIS-1, which is a representative peptide of the 18 types of novel peptides prepared in Example 1 against a representative autoimmune disease, arthritis, the experiment was performed using the collagen-induced arthritis mouse model of the literature (Nature, 283, pp 666-668, 1980; Arthritis Rheum, 46, pp 793-801, 2002).
The collagen-induced arthritis (CIA) is the model with arthritis of autoimmune disease type having similar characteristics as human rheumatoid arthritis and it was prepared by the following method.
The 100 μg of bovine type II collagen (Chondrex four, United States) was emulsified by mixing it with Freund's complete adjuvant (Chondrex, USA), and 7-week-old DBA/1 mouse ([…], male, central laboratory animals, Korea) was immunized by injecting the emulsified collagen solution intradermally at the tail region. On the 14th day of the first immunization, 50 μg of bovine type II collagen (Chondrex four, United States) was emulsified by mixing it with Freund's complete adjuvant (Chondrex, USA), and the second immune (boosting) response was induced by injecting the same intradermally at the tail region.
The novel peptide SIS-1 and a control drug, dexamethasone (DEX), were intraperitoneally administered three times a week from the next day of inducing the second immune response, and the control group (CIA) was treated with PBS.
In order to monitor the development of arthritis, the thickness of foot was measured using loop handle thickness gauge (Mitutoyo) while observing the weight change and the level of pathogenesis. In addition, the severity of the joint inflammation was assessed three times a week by two observers without knowing the contents of the experiment. Assessment of arthritis was performed by adding the scores for four legs per one mouse according to the following criteria, based on the arthritis progression index by Rossoliniec, et al. and then by taking the average of the values measured by two observers. The score and criteria for assessing arthritis are as follows:
0 point: no edema or swelling
1 point: mild edema and redness confined to foot or ankle joint
2 points: mild edema and redness in ankle joint through metatarsal
3 points: moderate edema and redness in ankle joint through metatarsal
4 points: edema and redness through the whole leg, and appearance of acampsia
The maximum arthritis index is 4 points per leg, and the maximum disease index per mouse is 16.
In order to determine the damage in the cartilage of joints, the histological examination was performed after completion of the test. On the 9th week of the animal model test, after the test animal was killed, the hind leg of the mouse hind was fixed with 10% formalin and coated with paraffin after removing compounds of calcium from the bones. Joint section was prepared and stained with hematoxylin and eosin.

[2] = system: IL-34; test: Reduction of IL-34 secretion in activated B cells (ELISA); assay type: cell-based; conditions: 100 ng/me of peptide; EBV-infected B cells stimulated with anti-CD150; ELISA of culture supernatant
Procedure: (§1) In order to determine the activity of the novel peptides synthesized in Example 1 for reducing the secretion of inflammatory cytokines, the activated pathogenic B cells were treated with each of the 18 types of synthesized novel peptides and the reduction in secretion of inflammatory cytokines from the B cells was monitored.
(§2) Specifically, in order to determine whether the novel peptides could weaken the pathogenic B cells which are involved in the development of disease symptoms, the in vitro B cells model which is similar to the joint infiltrative B cells of rheumatoid arthritis was used. The activated pathogenic B cell was generated by stimulating Ebstein Barr virus (EBV)-infected B cells with anti-CD150 antibodies, and the cells were treated with […] of each of the 18 types of novel peptide.
(§3) In order to confirm the effect of 18 types of novel peptides in reducing inflammatory cytokines, the secretion amount of various cytokines (IL-1A, IL-1B, IL-2, IL-4, IL-5, IL-6, IL-8, IL-10, IL-12A, IL-13, IL-17A, GM-CSF, IL-34) secreted from the activated B cells was measured. The supernatants of B cell culture were analyzed enzyme-linked immunosorbent assay (ELISA), and the difference in absorbance (450 nm-570 nm) of the color developing reagent was measured as test results. Based on the measured difference in absorbance (450 nm-570 nm) of the color developing reagent, the absorbance of cytokines secreted when treated with the 18 types of novel […] was calculated in percentage, while setting the absorbance corresponding to the cytokines secreted from the activated B cells stimulated by anti-CD150 as 100%.

[3] = system: IL-1B; test: Reduction of IL-1B secretion in activated B cells (ELISA); assay type: cell-based; conditions: 100 ng/me of peptide; EBV-infected B cells stimulated with anti-CD150; ELISA of culture supernatant
Procedure: as §1, §2, §3

[4] = system: IL-1A; test: Reduction of IL-1A secretion in activated B cells (ELISA); assay type: cell-based; conditions: 100 ng/me of peptide; EBV-infected B cells stimulated with anti-CD150; ELISA of culture supernatant
Procedure: as §1, §2, §3

[5] = system: IL-5; test: Reduction of IL-5 secretion in activated B cells (ELISA); assay type: cell-based; conditions: 100 ng/me of peptide; EBV-infected B cells stimulated with anti-CD150; ELISA of culture supernatant
Procedure: as §1, §2, §3

[6] = system: IL-2; test: Reduction of IL-2 secretion in activated B cells (ELISA); assay type: cell-based; conditions: 100 ng/me of peptide; EBV-infected B cells stimulated with anti-CD150; ELISA of culture supernatant
Procedure: as §1, §2, §3

[7] = system: IL-4; test: Reduction of IL-4 secretion in activated B cells (ELISA); assay type: cell-based; conditions: 100 ng/me of peptide; EBV-infected B cells stimulated with anti-CD150; ELISA of culture supernatant
Procedure: as §1, §2, §3

[8] = system: antibodies specific to bovine type II collagen; test: Serological analysis in collagen-induced arthritis mice (ELISA); assay type: in vivo, mouse; conditions: serum of CIA mice
Procedure: In order to determine the therapeutic effect of the novel peptide SIS-1 for arthritis, enzyme-linked immunosorbent assay (ELISA) was performed to measure the antibodies specific to bovine type II collagen with the serological test. As mentioned in the literature, IgG antibody, known as the rheumatoid factor (RF), or subtype of IgG (IgG1 and IgG2a) and IgM autoantibody are known to form immune complexes, cause inflammation, and develop the lesions of rheumatoid arthritis (Journal of Ethnopharmacology 112 (2007) 408).
After diluting the serum of each test group in a ratio of 1:25000 (IgG) or 1:10000 (IgG1, IgG2a, IgM), the titer of serum autoantibody specific to type II collagen was measured.

[9] = system: IL-13; test: Reduction of IL-13 secretion in activated B cells (ELISA); assay type: cell-based; conditions: 100 ng/me of peptide; EBV-infected B cells stimulated with anti-CD150; ELISA of culture supernatant
Procedure: as §1, §2, §3

[10] = system: IL-8; test: Reduction of IL-8 secretion in activated B cells (ELISA); assay type: cell-based; conditions: 100 ng/me of peptide; EBV-infected B cells stimulated with anti-CD150; ELISA of culture supernatant
Procedure: as §1, §2, §3

[11] = system: IL-12A; test: Reduction of IL-12A secretion in activated B cells (ELISA); assay type: cell-based; conditions: 100 ng/me of peptide; EBV-infected B cells stimulated with anti-CD150; ELISA of culture supernatant
Procedure: as §1, §2, §3

[12] = system: IL-17A; test: Reduction of IL-17A secretion in activated B cells (ELISA); assay type: cell-based; conditions: 100 ng/me of peptide; EBV-infected B cells stimulated with anti-CD150; ELISA of culture supernatant
Procedure: as §1, §2, §3

[13] = system: TPA-induced ear edema mouse model; test: TPA-induced ear edema mouse model; assay type: in vivo; conditions: 6 hours after TPA application, intraperitoneal, twice
Text: The present inventors confirmed that the peptides of the present invention are effective in alleviating inflammation invivo, along with reduction of the secretion of inflammatory cytokines as confirmed in Example 2. To be specific, in order to identify the anti-inflammatory effect of the peptide SIS-1, which is a representative peptide of 18 types of novel peptides prepared in Example 1, the present inventors used the method for evaluating the mouse ear edema wherein 12-O-tetradecanoylphorbol-13-acetate (TPA) induces acute inflammation as described in the literature (Eur J Pharmacol. 2011: 15; 672(1-3):175-179).
The TPA-induced ear edema mouse model is an animal model where erythema and edema caused by acute inflammation can be observed and it was prepared by the following method. The 24 mice of 5-week-old ICR mouse ([…], mal, central laboratory animals, Korea) were divided into 6 mice per group, and their hairs of both ears were removed before applying the sample. […]
The anti-inflammatory effect of the peptide SIS-1 was determined by observing the degree of edema inhibition as compared to the control group injected with vehicle. After 6 hours of TPA application, pictures of both ears were taken to determine the degree of ear edema, and the degree of inflammation alleviated was determined by measuring the thickness and weight per certain area of ear.

[14] = system: IL-6; test: Reduction of IL-6 secretion in activated B cells (ELISA); assay type: cell-based; conditions: 100 ng/me of peptide; EBV-infected B cells stimulated with anti-CD150; ELISA of culture supernatant
Procedure: as §1, §2, §3

[15] = system: GM-CSF; test: Reduction of GM-CSF secretion in activated B cells (ELISA); assay type: cell-based; conditions: 100 ng/me of peptide; EBV-infected B cells stimulated with anti-CD150; ELISA of culture supernatant
Procedure: as §1, §2, §3

[16] = system: IL-10; test: Reduction of IL-10 secretion in activated B cells (ELISA); assay type: cell-based; conditions: 100 ng/me of peptide; EBV-infected B cells stimulated with anti-CD150; ELISA of culture supernatant
Procedure: as §1, §2, §3

MSLPSPRDGRTDGRTDCTR (SIS-1 peptide)
onset of disease symptom ([1]; after second immunization, versus CIA group): delayed
mouse weight ([1]; after second immunization, intraperitoneal three times a week): maintained similar to that of Normal group
incidence of arthritis ([1]; by the end of the test, intraperitoneal three times a week): 87.5%
arthritis progression index ([1]; compared to the CIA group): reduced
swelling of ankle joints ([1]; compared to the CIA group): reduced
destruction of joints and cartilage (histology, hematoxylin and eosin) ([1]; hind leg joint sections, 9th week): maintained at similar level as the normal mice
Inhibition rate of each cytokine compared to CD150-stimulated EBV-t B cells (%) IL-34 [2]: 43.4%
Inhibition rate of each cytokine compared to CD150-stimulated EBV-t B cells (%) IL-1B [3]: 25.4%
Inhibition rate of each cytokine compared to CD150-stimulated EBV-t B cells (%) IL-1A [4]: 22.7%
Inhibition rate of each cytokine compared to CD150-stimulated EBV-t B cells (%) IL-5 [5]: 30.3%
Inhibition rate of each cytokine compared to CD150-stimulated EBV-t B cells (%) IL-2 [6]: 19.7%
Inhibition rate of each cytokine compared to CD150-stimulated EBV-t B cells (%) IL-4 [7]: 59.9%
reduction of autoantibodies compared with control drug DEX [8]: as effective as or superior than
Inhibition rate of each cytokine compared to CD150-stimulated EBV-t B cells (%) IL-13 [9]: 37.6%
Inhibition rate of each cytokine compared to CD150-stimulated EBV-t B cells (%) IL-8 [10]: 53.8%
Inhibition rate of each cytokine compared to CD150-stimulated EBV-t B cells (%) IL-12A [11]: 43.5%
Inhibition rate of each cytokine compared to CD150-stimulated EBV-t B cells (%) IL-17A [12]: 63.6%
erythema increased by TPA application [13]: reduced
inflammatory response (thickness and weight of ear increased by TPA edema) [13]: inhibited significantly
Inhibition rate of each cytokine compared to CD150-stimulated EBV-t B cells (%) IL-6 [14]: 42.9%
Inhibition rate of each cytokine compared to CD150-stimulated EBV-t B cells (%) GM-CSF [15]: 60.5%
Inhibition rate of each cytokine compared to CD150-stimulated EBV-t B cells (%) IL-10 [16]: 47.6%
